Experimental data taken from patent US20110281798A1, “Methods for Lowering Plasma Glucagon with Exendins and Exendin Agonist Analogs” (AMYLIN PHARMACEUTICALS, INC., priority 1999, published 2011).

Tests used:
diabetic db/db mice = test: Plasma glucose lowering in diabetic db/db mice, dose response; format: in vivo, mouse
Sprague-Dawley rats = test: Insulinotropic action during intravenous glucose challenge in rats; format: in vivo, rat; settings: 30 pmol/kg/min i.v.

Row | Substance | Glucose-lowering ED50 (diabetic db/db mice; diabetic db/db mice) | Increase of 60-min insulin AUC versus saline (Sprague-Dawley rats; n.s. versus saline) | Plasma glucose after glucose injection (Sprague-Dawley rats; saline 21.7) | 60-min glucose AUC (Sprague-Dawley rats; saline 987±39) | glucose lowering activity compared with exendin 4 (diabetic db/db mice; model not stated at b253)
1 | GLP-1 [7-36]NH2 | 20.6 µg | 20% | 23.7 mM | 1096 ± 68 mM·min | –
2 | Leu^14, Phe^25 1-28 exendin-4 (HGEGTFTSDLSKQLEEEAVRLAIEFLKN) [AC3177, a shortened analog of exendin 4] | – | – | – | – | nearly equipotent activity to exendin 4
